Measurements: PubChem BioAssay (NCI)
“And” between values parts separate entries of the source, which are not always exact repeats. Identical values can stand only once.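 Growth conditions: 96-well plates. Treatment: test compound, 48 hours, 5 concentrations. Analysis: linear interpolation between bracketing concentrations; unreached endpoints set to highest concentration. GI50 marks 50% less growth. TGI: concentration producing complete growth inhibition.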

Legend:
Test in all cases: growth of human tumour cells (NCI), 48 h
[1] = tested on: SNB-19 CNS
[2] = tested on: SK-MEL-5 melanoma
[3] = tested on: A498 renal
[4] = tested on: BT-549 breast
[5] = tested on: OVCAR-3 ovarian
[6] = tested on: UACC-257 melanoma
[7] = tested on: K-562 leukemia
[8] = tested on: OVCAR-5 ovarian
[9] = tested on: SW-620 colon
[10] = tested on: LOX IMVI melanoma

O=C(O)c1cn(C2CC2)c2cc(N3CCN(Cc4c(O)ccc5ccccc45)CC3)c(F)cc2c1=O
GI50 [1]: 91.5 µM | TGI [1]: > 100 µM | GI50 [2]: 5.45 µM | TGI [2]: > 100 µM | GI50 [3]: 1.48 µM | TGI [3]: 4.47 µM | GI50 [4]: 3.5 µM | TGI [4]: 48.7 µM | GI50 [5]: 3.4 µM | TGI [5]: 22.6 µM | GI50 [6]: > 100 µM | TGI [6]: > 100 µM | GI50 [7]: > 100 µM | TGI [7]: > 100 µM | GI50 [8]: > 100 µM | TGI [8]: > 100 µM | GI50 [9]: 4.12 µM | TGI [9]: > 100 µM | GI50 [10]: 4.67 µM | TGI [10]: > 100 µM

COc1cc(C2CC(=O)Nc3c2c(C)nn3-c2nc3ccccc3[nH]2)cc(OC)c1O (stereo unspecified)
GI50 [1]: 3.5 µM | TGI [1]: > 100 µM | GI50 [2]: 1.83 µM | TGI [2]: 3.62 µM | GI50 [3]: 1.86 µM | TGI [3]: 6.1 µM | GI50 [4]: 2.6 µM | TGI [4]: 6.09 µM | GI50 [5]: 2.95 µM | TGI [5]: 7.78 µM | GI50 [6]: 2.98 µM | TGI [6]: > 24.5 µM | GI50 [7]: 4.67 µM | TGI [7]: > 100 µM | GI50 [8]: 11.6 µM | TGI [8]: 30.4 µM | GI50 [9]: 3.04 µM | TGI [9]: 17.4 µM | GI50 [10]: 3.08 µM | TGI [10]: 10.9 µM

COc1ccc(-c2[nH]nc(N)c2-c2cc(OC)c(OC)c(OC)c2)cc1
GI50 [1]: 0.519 µM | TGI [1]: > 100 µM | GI50 [2]: 0.0381 µM | TGI [2]: 0.725 µM | GI50 [3]: 0.021 µM | TGI [3]: 0.0832 µM | GI50 [4]: 0.0873 µM | TGI [4]: 4.29 µM | GI50 [5]: 0.0261 µM | TGI [5]: 0.853 µM | GI50 [6]: 8.03 µM | TGI [6]: > 100 µM | GI50 [7]: 0.0315 µM | TGI [7]: > 100 µM | GI50 [8]: 0.0659 µM | TGI [8]: > 100 µM | GI50 [9]: 0.0387 µM | TGI [9]: > 100 µM | GI50 [10]: 0.0756 µM | TGI [10]: > 100 µM

COc1ccc(-c2cn(-c3cc(OC)c(OC)c(OC)c3)c(=O)[nH]2)cc1OC
GI50 [1]: > 100 µM | TGI [1]: > 100 µM | GI50 [2]: > 100 µM | TGI [2]: > 100 µM | GI50 [3]: 80.3 µM | TGI [3]: > 100 µM | GI50 [4]: > 100 µM | TGI [4]: > 100 µM | GI50 [5]: > 100 µM | TGI [5]: > 100 µM | GI50 [6]: > 100 µM | TGI [6]: > 100 µM | GI50 [7]: > 100 µM | TGI [7]: > 100 µM | GI50 [8]: > 100 µM | TGI [8]: > 100 µM | GI50 [9]: > 100 µM | TGI [9]: > 100 µM | GI50 [10]: > 100 µM | TGI [10]: > 100 µM

COC(=O)[C@@H](C)C[C@H](Cc1ccccc1)NC(=O)c1csc([C@@H](C[C@H](C(C)C)N(C)C(=O)[C@@H](NC(=O)[C@H]2CCCN2C)C2CC2)OC(C)=O)n1
GI50 [1]: 0.00125 µM and 0.0025 µM | TGI [1]: > 25 µM | GI50 [2]: 0.000329 µM and < 0.0025 µM | GI50 [3]: 0.00147 µM and < 0.0025 µM | TGI [3]: 0.00817 µM and < 0.0025 µM | GI50 [4]: 0.000664 µM and < 0.0025 µM | GI50 [5]: 0.000198 µM | TGI [5]: 0.00695 µM | GI50 [6]: 0.22 µM | GI50 [7]: 0.000352 µM and 0.0025 µM | TGI [7]: > 25 µM | TGI [8]: > 25 µM | GI50 [9]: 0.000508 µM and 0.0025 µM | TGI [9]: > 25 µM | GI50 [10]: 0.00477 µM and 0.0025 µM | TGI [10]: > 25 µM
